According to patent US20120020930A1, “METHODS FOR THE PREPARATION OF ADIPOSE DERIVED STEM CELLS AND UTILIZING SAID CELLS IN THE TREATMENT OF DISEASES” (CELLERIX, S.A., priority 2008, published 2012):
“Also recorded” adds a separate entry of the source.

Experiments:
ASC [1] = assay: Transwell migration of ASC towards SDF-1 in the presence of Diprotin A; type: cell-based, human; settings: Diprotin A 0, 1, 5, 10 mM on upper surface; SDF-1 50 μM in well; 24 h; crystal violet stained cells counted; FIG. 1
Experimental: ASC were obtained from lipoaspirates obtained from human adipose tissue from healthy adult donors. Lipoaspirates were washed twice with PBS, and digested at 37° C. for 30 minutes with 0.075% collagenase (Type I, Invitrogen, Carlsbad, Calif.) in PBS. The digested sample was washed with 10% of fetal bovine serum (FBS), treated with 160 mM CINH4, suspended in culture medium (DMEM containing 10% FBS) and filtered through a 40-μm nylon mesh. Cells were seeded (2-3×10^4 cells/cm^2) onto tissue culture flasks and expanded at 37° C. and 5% CO2, changing the culture medium every 7 days. Cells were passed to a new culture flask (1,000 cells/cm^2) when cultures reached 90% of confluence. Cells were phenotypically characterized by their capacity to differentiate into chondro-, osteo-, and adipo-genic lineages. A pool of 6 ASC samples from different donors (culture passage 4-6) was used.
ASC (10^4 cells) were seeded onto the upper surface of a Transwell permeable support insert with a pore size of 8 μm. The permeable supports were inserted into a 24 well plate. […]
Stained cells (i.e. those having migrated to the underside of the permeable support) were then counted. Total number of counted cells per experimental condition is shown (two inserts per condition were counted).

ASC [2] = assay: IDO expression in ASC upon stimulation with pro-inflammatory mediators (RT-PCR and Western Blot); type: cell-based; settings: TNF-α at 50 ng/mi

Substance | number of migrating cells (ASC migration to the underside of the permeable support) (ASC [1]) | IDO expression (ASC [2])
Ile-Pro-Ile [Diprotin A] | increased migration of cells; also recorded: increased in proportion to the amount of Diprotin A | –
TNF-α | – | did not induce IDO expression
